Active and inactive are the calls of the source. No cut-off for these calls is given here.
biological target: T1, Galactofuranosyltransferase GlfT2 (Mycobacterium tuberculosis) (UniProt O53585); assay: Inhibition of Mycobacterium tuberculosis recombinant GlfT2 using beta-D-Galf-(1-5)-beta-D-Galf-(1-6)-beta-D-Galf-octyl as acceptor and UDP-Galf as donor substrate at 4 mM by coupled spectrophotometric assay
T1 sequence (whole entry): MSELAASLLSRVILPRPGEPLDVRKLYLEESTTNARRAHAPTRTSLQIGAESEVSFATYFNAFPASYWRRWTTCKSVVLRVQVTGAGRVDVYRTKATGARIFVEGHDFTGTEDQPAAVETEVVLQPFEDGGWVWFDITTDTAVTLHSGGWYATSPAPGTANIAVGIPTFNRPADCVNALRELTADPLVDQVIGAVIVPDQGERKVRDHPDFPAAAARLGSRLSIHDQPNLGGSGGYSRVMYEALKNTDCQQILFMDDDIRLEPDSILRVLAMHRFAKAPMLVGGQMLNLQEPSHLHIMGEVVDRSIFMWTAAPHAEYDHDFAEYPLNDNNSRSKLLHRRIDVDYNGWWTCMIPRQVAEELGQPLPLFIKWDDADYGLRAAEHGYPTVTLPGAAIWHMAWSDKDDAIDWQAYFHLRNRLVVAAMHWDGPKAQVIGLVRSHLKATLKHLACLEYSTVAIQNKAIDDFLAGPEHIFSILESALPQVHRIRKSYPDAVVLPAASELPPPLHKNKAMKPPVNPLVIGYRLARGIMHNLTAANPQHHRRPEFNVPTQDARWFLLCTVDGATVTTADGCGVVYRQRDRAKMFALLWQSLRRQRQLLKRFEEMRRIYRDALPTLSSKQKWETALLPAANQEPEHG

Row | SMILES | inhibition
1 | OCCCCCCCCCCCC[S+]1C[C@H]([C@H](O)CO)[C@H](O)C1 (some centres undefined) | 60%
2 | COCC[S+]1C[C@H]([C@H](O)CO)[C@H](O)C1 (some centres undefined) | inactive
3 | OCCC[S+]1C[C@H]([C@H](O)CO)[C@H](O)C1 (some centres undefined) | inactive
4 | OC[C@@H](O)[C@H]1C[S+](Cc2ccccc2)C[C@H]1O (some centres undefined) | inactive
5 | COCCCCCCCC[S+]1C[C@H]([C@H](O)CO)[C@H](O)C1 (some centres undefined) | inactive
6 | OC[C@@H](O)[C@H]1C[S+](CCc2ccccc2)C[C@H]1O (some centres undefined) | inactive
7 | CCC[S+]1C[C@H]([C@H](O)CO)[C@H](O)C1 (some centres undefined) | inactive
8 | O=c1ccn([C@@H]2O[C@H](COCCC[S+]3C[C@H]([C@H](O)CO)[C@H](O)C3)[C@@H](O)[C@H]2O)c(=O)[nH]1 (some centres undefined) | inactive
9 | CCCCCCCC[S+]1C[C@H]([C@H](O)CO)[C@H](O)C1 (some centres undefined) | inactive
10 | CC(C)C[S+]1C[C@H]([C@H](O)CO)[C@H](O)C1 (some centres undefined) | inactive
11 | OC[C@@H](O)[C@H]1C[S+](CC2CCCCC2)C[C@H]1O (some centres undefined) | inactive
12 | O=[N+]([O-])c1ccc(C[S+]2C[C@H]([C@H](O)CO)[C@H](O)C2)cc1 (some centres undefined) | inactive
13 | OCCCCCCCC[S+]1C[C@H]([C@H](O)CO)[C@H](O)C1 (some centres undefined) | inactive
14 | O=c1ccn([C@@H]2O[C@H](COCCCC[S+]3C[C@H]([C@H](O)CO)[C@H](O)C3)[C@@H](O)[C@H]2O)c(=O)[nH]1 (some centres undefined) | inactive

Source: ChEMBL document CHEMBL3596112, “Sulfonium ions as inhibitors of the mycobacterial galactofuranosyltransferase GlfT2” (Medchemcomm, 2014)
